Measured values from patent US12622901B2, “Compounds for tau protein degradation” (Dana-Farber Cancer Institute, Inc., priority 2017, dated 2026).
Entries after “also recorded” stand apart in the source; their conditions may differ.

How the values were obtained:
[1] = In vivo pharmacokinetic study of plasma and brain tissue in mice; details: male CD-1 mice, 30 mg/kg intraperitoneal
Description: (§1) To determine whether the compounds of the present disclosure are capable of crossing the blood brain barrier (BBB), a key property for use of these compounds as CNS therapeutics, compound 3 was administered to mice in a pharmacokinetic study of plasma and brain tissue. A stable formulation compatible with chronic administration was prepared prior to administration, and analytical methods for measuring concentration of the compound in plasma and brain tissue were developed. Mice were additionally monitored for tolerability for up to 24 hours.
Animal Husbandry: Male CD-1 mice were group housed during a 2-3 day acclimation prior to the study at an animal room environment with a controlled environment (target conditions: temperature 18-26° C., relative humidity 30-70%, 12 hours artificial light and 12 hours dark). All animals had access to Certified Rodent Diet and water ad libitum.
(§2) For intraperitoneal (IP) dosing, the dose formulation was administered with a dose volume determined by the animals' body weight collected on the morning of dosing day.
Sample Collection & Processing:
Blood Samples: A blood sample (about 0.03 mL per time point) was collected from each mouse into polypropylene tubes at each timepoint. All blood samples were transferred into pre-chilled commercial EDTA-K2 tubes or pre-chilled plastic microcentrifuge tubes containing 2 μL of EDTA-K2 as anti-coagulant and placed on wet ice until centrifugation. Each collected blood sample was centrifuged for 15 minutes at 4° C. and 3000 g for plasma collection. Plasma from each mouse was transferred into a pre-labeled polypropylene tube in dry ice at each time point. After terminal collection, all plasmas were stored at approximately −80° C. until bioanalysis.
Brain Samples: Whole brain was dissected at each designated time point and rinsed twice cold in deionized water before processing. They were then blotted on filter paper, weighed and homogenized with 5-fold of cold 15 mM PBS/MeOH (V:V, 2:1) using mechanical method. The samples were kept with ice water when homogenizing, and further stored at −80° C. until bioanalysis.
Bioanalytical Method Development: A LC-MS/MS method was developed and used for the quantitative determination of test compound concentration in blood and brain with a calibration curve applied to determine the limits of quantification.
In Vivo Sample Analysis: Plasma and brain concentration versus time data along with C^max, Tmax, T1/2, and AUC(0-t) was analyzed by non-compartmental approaches using the Phoenix WinNonlin 6.3 software program.

A152T neurons = experiment: Neuronal viability / rescue of stress vulnerability to β-amyloid (1-42) peptide; details: A152T neurons differentiated 8 weeks, FIG. 7
tau protein = biological target: T1, tau protein (Homo sapiens, UniProt P10636, A469T); experiment: Tau degradation assay (western blot) in human tau-A152T neurons; format: cell-based; details: 6-week differentiated A152T neurons; treatment for 24 hours; FIG. 6
T1 construct: cultured human differentiated frontotemporal lobar dementia (FTD) neurons; endogenous in cells; host or cells: human differentiated FTD neurons, tau-A152T (line 19-5-RC6)
Description: Example compounds 1-12 were evaluated for their ability to degrade tau protein in cultured human differentiated frontotemporal lobar dementia (FTD) neurons. […] For each condition, 1 well of differentiated neuronal cells (6 well-plate) was washed and collected in PBS, pelleted and lysed in RIPA buffer (Boston Bio-Products) with 2% SDS (Sigma), protease inhibitors (Roche Complete Mini tablets), and phosphatase inhibitors (Sigma), followed by sonication in a water sonicator (Bransonic Ultrasonic Baths, Thomas Scientific) for 5 min, and centrifugation at 20,000 g for 15 min. Supernatants were transferred to new tubes, total protein concentration was quantified with the Pierce BCA Protein Assay Kit (Thermo), and SDS-PAGE gels were loaded with 10 μg total protein per well (pre-boiled samples). Western blots were performed with the Novex NuPAGE SDS-PAGE Gel System (Invitrogen). All samples were resolved in 7% Tris-Acetate gels with Tris-Acetate running buffer (Invitrogen). Blots were probed with antibodies against total tau (TAU5) and phosphosrylated tau (Ser396), along with β-actin as a loading control; followed by corresponding HRP-linked secondary antibodies (Cell Signaling Technology), and SuperSignal West Pico Chemiluminescent Substrate (Thermo) detection. Membranes were exposed to autoradiographic film (LabScientific) and films were scanned using an Epson Perfection V800 Photo Scanner. Protein band intensities (pixel mean intensity) were quantified using Adobe Photoshop CS5 Histogram function. Whereas the vehicle alone (DMSO) had no effect on tau, varying degrading activity was observed amongst the compounds, however with overall similar relative levels of degrading activity between tau-A152T neurons and tau-P301L neurons. Compounds were added at the doses indicated of either 0.1, 1, 5, or 10 μM.
Four-week differentiated neurons, both non-mutant (8330-8) and tau-A152T (19-5-RC6) were employed. The neurons were treated with T807 for 24 hours (at 10 μg/mL=59.4 μM). One well of differentiated neuronal cells (6 well-plate, treated or untreated) was washed and collected in PBS, pelleted and directly lysed in 200 μL of Sample Buffer (New England Biolabs) supplemented with 3X DTT, boiled for 15 min and 10 μL of each lysate was run by SDS-PAGE in a 4-12% Bis-Tris Gel, with MOPS running buffer. Blots were probed with antibodies to total tau (DA9) and phosphorylated tau (Ser396, PHF1, AT8) along with GAPDH as a loading control.
Example compounds 2-5 were reevaluated for their ability to degrade tau protein in human FTD neurons as well as evaluate their effect on E3 ubiquitin ligases CRBN, VHL, and CHIP (FIG. 4A-E). For each control and treatment, 1 well of differentiated neuronal cells (6 well-plate) was washed and collected in PBS, pelleted and lysed in RIPA buffer (Boston Bio-Products) with 2% SDS (Sigma), protease inhibitors (Roche Complete Mini tablets), and phosphatase inhibitors (Sigma), followed by sonication in a water sonicator (Bransonic Ultrasonic Baths, Thomas Scientific) for 5 min, and centrifugation at 20,000 g for 15 min. Supernatants were transferred to new tubes, total protein concentration was quantified with the Pierce BCA Protein Assay Kit (Thermo), and SDS-PAGE gels were loaded with 10 μg total protein per well (pre-boiled samples). […] Protein band intensities (pixel mean intensity) were quantified using Adobe Photoshop CS5 Histogram function. […]

[2] = Dose formulation in 20% PEG400 in water; format: physicochemical; details: 5.00 mg/mL in 20% PEG400 in water
Description: as §2

[3] = Tolerability monitoring of mice for up to 24 hours; format: in vivo; details: male CD-1 mice, 30 mg/kg intraperitoneal, monitored up to 24 hours
Description: as §1

T1 sequence (P10636 1-441 isoform P10636-8 A152T): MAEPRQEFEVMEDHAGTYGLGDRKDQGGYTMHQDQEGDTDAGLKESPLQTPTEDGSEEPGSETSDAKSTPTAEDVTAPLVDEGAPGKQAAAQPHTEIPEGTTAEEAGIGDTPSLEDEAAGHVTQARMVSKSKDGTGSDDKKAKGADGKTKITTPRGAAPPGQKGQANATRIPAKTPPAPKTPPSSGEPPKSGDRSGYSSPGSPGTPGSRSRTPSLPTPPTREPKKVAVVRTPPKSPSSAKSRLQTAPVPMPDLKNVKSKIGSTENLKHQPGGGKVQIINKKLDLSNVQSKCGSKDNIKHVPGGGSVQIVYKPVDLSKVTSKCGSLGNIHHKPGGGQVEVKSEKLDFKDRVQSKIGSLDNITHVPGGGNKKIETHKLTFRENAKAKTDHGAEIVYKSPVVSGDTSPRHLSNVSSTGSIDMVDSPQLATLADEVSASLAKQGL

O=C(CCc1ccc2c(c1)[nH]c1ccncc12)NCCOCCOCCNc1cccc2c1C(=O)N(C1CCC(=O)NC1=O)C2=O (stereo not shown) [Compound 3, N-(2-(2-(2-((2-(2,6-dioxopiperidin-3-yl)-1,3-dioxoisoindolin-4-yl)amino)ethoxy)ethoxy)ethyl)-3-(5H-pyrido[4,3-b]indol-7-yl)propanamide]
brain penetration / crossing the blood-brain barrier ([1]; 20% PEG400/water, n=3 per group, 30 mg/kg): capable of brain penetration; also recorded: capable of crossing the blood-brain barrier | AUC0-last, Mean Brain ([1]; brain): 74.3 ng·h/mL | Cmax, Mean Brain ([1]; brain): 56.4 ng/mL | Tmax, Mean Brain ([1]; brain): 0.500 h | AUC0-last, Mean Plasma ([1]; plasma): 6938 ng·h/mL | Cmax, Mean Plasma ([1]; plasma): 4640 ng/mL | T1/2, Mean Plasma ([1]; plasma): 7.23 h | Tmax, Mean Plasma ([1]; plasma): 1.00 h | rescue of stress vulnerability (A152T neurons; 8 h pre-treatment, then 10 μM β-amyloid (1-42) peptide for 16 h): effective at rescuing stress vulnerability | effect on neuronal viability (A152T neurons; compound alone): no effect on neuronal viability | dose-dependency of effect on tau (tau protein): dose dependent effect on tau | appearance/stability of dose formulation [2]: clear, stable solution | tolerability / adverse effects [3]: no adverse effects were observed; also recorded: well tolerated
